Values of other authors in patent publication US9801907B2, “Film-coated and/or granulated calcium-containing compounds and use therof in pharmaceutical compositions” (Takeda Nycomed AS, priority 2005, dated 2017).

Columns and labels:
[1] = parts substance in parts water
[2] = annual injections of 150.000-300.000 IU; not in the rate of hip fracture

| Molecule | Solubility in water at 20° C. [1] | overall fracture rate [2] |
| --- | --- | --- |
| OC[C@@H](O)[C@@H](O[C@H]1O[C@H](CO)[C@@H](O)[C@H](O)[C@H]1O)[C@H](O)[C@@H](O)CO [Maltitol] | Freely soluble | – |
| vitamin D | – | significant reduction |
| Maltodextrins | Freely soluble | – |
